The values below come from ChEMBL document CHEMBL1126708, “Inhibitors of acyl-CoA:cholesterol acyltransferase (ACAT). 2. Modification of fatty acid anilide ACAT inhibitors: bioisosteric replacement of the amide bond” (J Med Chem, 1993).

One test has as its target O-acyltransferase (Oryctolagus cuniculus, UniProt G1SFD9). The test can be described thus: Acyl coenzyme A:cholesterol acyltransferase (ACAT), inhibition by incubation with [1-14C]oleolyl-CoA and intestinal microsomes isolated from intestinal mucosa of cholesterol-fed rabbits.
In another test the test system is Rattus norvegicus. The test can be described thus: In vivo change in plasma total cholesterol in cholic acid (0.3%)-cholesterol (1.5%)-peanut oil(5.5%) fed rats dosed at 0.05% of diet.
Test [1] can be described thus: Tested in vivo for plasma total cholesterol(TC) in cholic acid (0.3%)-cholesterol (1.5%)-peanut oil (5.5%) fed rats. It is filed as functional.
Test [2] addresses T1, Acyl-CoA:cholesterol acyltransferase (Oryctolagus cuniculus) (UniProt Q95214).
T1 sequence (whole entry): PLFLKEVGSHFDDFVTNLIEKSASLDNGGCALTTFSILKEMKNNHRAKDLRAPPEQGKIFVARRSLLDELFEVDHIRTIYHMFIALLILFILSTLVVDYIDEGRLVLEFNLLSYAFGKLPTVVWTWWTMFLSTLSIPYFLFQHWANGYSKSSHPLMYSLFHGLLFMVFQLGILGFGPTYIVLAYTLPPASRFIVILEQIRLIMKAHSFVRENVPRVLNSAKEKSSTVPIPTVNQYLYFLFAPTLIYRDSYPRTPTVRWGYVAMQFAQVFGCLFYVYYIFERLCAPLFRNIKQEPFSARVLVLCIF
Nature of the test: Tested in vitro against intestinal Acyl coenzyme A:cholesterol acyltransferase by incubation with [1-14C]oleolyl-CoA in intestinal microsomes isolated from intestinal mucosa of cholesterol-fed rabbits. Conditions: Microsome, concentration not given here.

O-acyltransferase, sequence (G1SFD9 1-524): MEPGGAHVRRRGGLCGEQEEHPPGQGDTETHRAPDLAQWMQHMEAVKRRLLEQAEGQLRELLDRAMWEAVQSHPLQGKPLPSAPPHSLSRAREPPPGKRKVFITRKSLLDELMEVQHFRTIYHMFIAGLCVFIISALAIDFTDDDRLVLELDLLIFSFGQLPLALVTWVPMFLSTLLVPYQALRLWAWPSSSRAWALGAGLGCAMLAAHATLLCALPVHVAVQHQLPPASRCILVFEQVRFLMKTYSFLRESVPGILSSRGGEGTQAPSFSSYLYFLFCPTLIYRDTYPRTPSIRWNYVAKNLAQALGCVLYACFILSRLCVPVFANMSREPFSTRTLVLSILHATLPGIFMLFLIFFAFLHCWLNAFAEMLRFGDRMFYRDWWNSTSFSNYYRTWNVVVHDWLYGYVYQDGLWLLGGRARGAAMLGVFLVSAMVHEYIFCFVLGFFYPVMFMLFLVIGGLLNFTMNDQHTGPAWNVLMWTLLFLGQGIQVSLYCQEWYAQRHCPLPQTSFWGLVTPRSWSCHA

As a reminder, the IC50 is the midpoint of a concentration-inhibition curve. Low readings indicate higher potency, high ones lower potency. For the molecule `CCCCCCCC/C=C\CCCCCCCCNC(=O)Nc1c(Cl)cccc1Cl`, at O-acyltransferase, the IC50 worked out at 400 nM. The Change with Rattus norvegicus was -47%. The matching figures for `CCCCCCCCCCC(C)(C)NC(=O)Nc1c(CC)cccc1CC`: 52 nM and -60%.

As for `CCCCCCCCCCCCCCCCCCNC(=O)Oc1c(C)cccc1C`, inhibition on O-acyltransferase was half-maximal at 3100 nM (IC50). On to `CCCCCCCCCCC(C)(C)NC(=O)Nc1c(C(C)C)cccc1C(C)C`, for which the IC50 against O-acyltransferase turned out to be 45 nM. In addition, the Change in the test with Rattus norvegicus is -60%.

On O-acyltransferase, `CCCCCCCC/C=C\CCCCCCCCNC(=O)Nc1c(C(C)C)cccc1C(C)C` showed an IC50 of 28 nM. The Change in the test on Rattus norvegicus was -45%. The matching figures for `CCCCCCCCCCNC(=O)Nc1c(CC)cccc1C(C)C`: 87 nM and -61%. With `CCCCNC(=O)Nc1c(C(C)C)cccc1C(C)C`, half-maximal inhibition against O-acyltransferase (IC50) required 630 nM. As for `CCCCCCCC/C=C\CCCCCCCCNC(=O)Nc1c(OC)cc(OC)cc1OC`, at O-acyltransferase, the IC50 was found to be 320 nM. Further, the Change in test [1] is reported as -25%. `CCCCCCCC/C=C\CCCCCCCC(=O)NCc1c(OC)cc(OC)cc1OC` registered an IC50 against O-acyltransferase of 6800 nM. The same measure, in the same setting: in the case of `CCCCCCCCCCCCCCCCCCNC(=O)NCc1c(OC)cc(OC)cc1OC` it was > 5000 nM; in that of `CCCCCCCC/C=C\CCCCCCCCOC(=O)Nc1c(OC)cc(OC)cc1OC`, 860 nM. Same read-out and setting: the value for `CCCCCCCC/C=C\CCCCCCCCOC(=O)c1c(OC)cc(OC)cc1OC` was > 5000 nM.

At O-acyltransferase, `CCCCCCCCCCCCCCNC(=O)Nc1c(F)cc(F)cc1F` had an IC50 of 250 nM. In turn, `CCCCCCCCCCCCCCCCCCNC(=O)Nc1c(C)cccc1Cl` had an IC50 against O-acyltransferase of 1100 nM.

Regarding `CCCCCCCC/C=C\CCCCCCCCNC(=O)c1c(OC)cc(OC)cc1OC`, it took 9400 nM to reach half-maximal inhibition against O-acyltransferase (IC50). With `CCCCCCCCCCCCCCNC(=O)Nc1c(C)cccc1Cl`, the IC50 on O-acyltransferase worked out at 70 nM. For the same molecule, the Change with Rattus norvegicus was found to be 0%. The matching figures for `CCCCCCCCCCCCCCNC(=O)Nc1c(CC)cccc1CC`: 21 nM and -38%.

`CCCCCCCC/C=C\CCCCCCCCNC(=O)Nc1c(C)cc(C)cc1C` gave an IC50 against O-acyltransferase of 2900 nM. The same measure, in the same setting: the value for `CCCCCCCC/C=C\CCCCCCCCNC(=O)Nc1ccccc1` was > 5000 nM. Molecule `CCCCCCCC/C=C\CCCCCCC/C(S)=N/c1c(OC)cc(OC)cc1OC` returned an IC50 at O-acyltransferase of 900 nM. Further, the Change in the test with Rattus norvegicus is -22%. As to `CCCCCCCCCCC1(NC(=O)Nc2c(CC)cccc2CC)CCCC1`, the IC50 against O-acyltransferase turned out to be 110 nM. On to `CCCCCCCC/C=C\CCCCCCCC(=O)Nc1c(C)cccc1C`, for which, in the test on Rattus norvegicus, the Change was -38%. With `CCCCCCCC/C=C\CCCCCCCCNC(=O)Nc1ccc(OC)cc1OC`, on O-acyltransferase, inhibition was half-maximal at 5400 nM (IC50). For the molecule `CCCCCCCC/C=C\CCCCCCCCNC(=O)Nc1c(Cl)cc(Cl)cc1Cl`, half-maximal inhibition on O-acyltransferase (IC50) required 1200 nM.

For the molecule `CCCCCCCC/C=C\CCCCCCCCNCc1c(OC)cc(OC)cc1OC`, the IC50 on O-acyltransferase is > 100000 nM. The same measure, in the same setting: the value for `CCCCCCCCCCCCCCCCCCNC(=O)Sc1c(C)cccc1C` was 2460 nM; that for `CCCCCCNC(=O)Nc1c(C(C)C)cccc1C(C)C` was 99 nM. On the same count and under the same terms, in the case of `CCCCCCCC/C=C\CCCCCCCCNC(=O)Nc1ccc(C)cc1C` it was > 5000 nM; in that of `CCCCCCCC/C=C\CCCCCCCC(=O)c1c(OC)cc(OC)cc1OC`, > 50000 nM. `CCCCCCCC/C=C\CCCCCCCCNC(=O)Nc1c(CC)cccc1C(C)C` returned an IC50 on O-acyltransferase of 37 nM. Also, the Change in the test on Rattus norvegicus is -41%. Regarding `CCCCCCCCCCCCCCCCCCOC(=O)Nc1c(C)cccc1C`, at O-acyltransferase, the IC50 was > 10000 nM. On the same count and under the same terms, the value for `CCCCCCCCCCCCCCNC(=O)Nc1ccc(F)cc1F` was 340 nM. On the same count and under the same terms, in the case of `CCCCCCCCCCCCCCCCCCNC(=O)c1c(C)cccc1C` it was > 10000 nM. Regarding `CCCCCCCC/C=C\CCCCCCCC/N=C(\S)Nc1c(C)cccc1C`, the Change in the test with Rattus norvegicus is -17%. `CCCCCCCCCCCCCCCCS(=O)(=O)Nc1c(OC)cc(OC)cc1OC` yielded an IC50 on O-acyltransferase of 690 nM. The same measure, in the same setting: in the case of `CCCCCCCCCCCCCCCCCCSc1c(C)cccc1C` it was > 10000 nM. Same read-out and setting: the value for `CCCCCCCCCCC(C)(C)NC(=O)Nc1ccccc1CC` was 500 nM; that for `CNC(=O)Nc1c(C(C)C)cccc1C(C)C` was > 5000 nM. As to `CCCCCCCC/C=C\CCCCCCCCNC(=O)Nc1c(C)cccc1Cl`, on O-acyltransferase, 180 nM corresponded to half-maximal inhibition (IC50). The Change in the test on Rattus norvegicus is -42%. `CCCCCCCCCCC1(NC(=O)Nc2c(C(C)C)cccc2C(C)C)CCCC1`: the IC50 against O-acyltransferase stood at 46 nM. In the test with Rattus norvegicus, the Change is -53%.

For `CCCCCCCCCCCCCCCCCC(=O)Oc1c(C)cccc1C`, the IC50 at O-acyltransferase is > 10000 nM. The same measure, in the same setting: the value for `CCCCCCCC/C=C\CCCCCCCCNC(=O)Nc1ccc(F)cc1F` was 4700 nM. On the same count and under the same terms, in the case of `CCCCCCCCCCCCCCNC(=O)Nc1cccc(C(F)(F)F)c1` it was > 2500 nM; in that of `CCCCCCCCCCNC(=O)Nc1c(C)cccc1C(C)C`, 210 nM. On the same count and under the same terms, in the case of `CCCCCCCCCC(C)(C)CNC(=O)Nc1c(C(C)C)cccc1C(C)C` it was 46 nM. With `CCCCCCCC/C=C\CCCCCCCCNC(=O)Nc1c(CC)cccc1CC`, the midpoint of inhibition against O-acyltransferase, the IC50, lay at 43 nM. Also, the Change in the test with Rattus norvegicus was -26%. In the same order, the values of `CCCCCCCC/C=C\CCCCCCCCNC(=O)Nc1ccccc1CC` are 980 nM and -28%. In the same order, the values of `CCCCCCCCCCCCCCCCCCNC(=O)Nc1c(C(C)C)cccc1C(C)C` are 48 nM and -7%.

In the case of `CCCCCCCCCCCCCCCCCCOc1c(C)cccc1C`, the IC50 against O-acyltransferase is > 10000 nM. With `CCCCCCCC/C=C\CCCCCCCCNC(=O)Nc1c(C)cccc1C`, on O-acyltransferase, the IC50 worked out at 160 nM. Also, the Change with Rattus norvegicus is -55%. As to `CCCCCCCCCCCCCCCCCCSC(=O)Nc1c(C)cccc1C`, on O-acyltransferase, the IC50 is > 10000 nM. As to `CCCCCCCCCCNC(=O)Nc1c(C(C)C)cccc1C(C)C`, on O-acyltransferase, half-maximal inhibition (IC50) was put at 56 nM. In addition, in the test with Rattus norvegicus, the Change was -64%. By inhibition is commonly meant the relative decrease from the control value, in per cent. A low value points to a response near the control. Consider `CCCCCCCC/C=C\CCCCCCCC(O)c1c(OC)cc(OC)cc1OC` (configuration not stated), for which the inhibition in test [2] turned out to be 6%. `CCCCCCCC/C=C\CCCCCCCCNC(=S)Nc1c(C)cccc1C` had an IC50 at O-acyltransferase of 5400 nM. As to `CCCCCCCCCCCCCCCCCC(=O)Nc1c(OC)cc(OC)cc1OC`, the Change in the test on Rattus norvegicus was -11%.

`CCCCCCCCCCCCCCCCCCSC(=O)Nc1c(OC)cc(OC)cc1OC`: the IC50 at O-acyltransferase is 5700 nM. The same measure, in the same setting: in the case of `CCCCCCCCCCCCCCCCCCOC(=O)Nc1c(OC)cc(OC)cc1OC` it was 7100 nM. Same read-out and setting: in the case of `CCCCCCCCCCCCCCNC(=O)Nc1c(Br)cc(CC)cc1Br` it was 520 nM. On the same count and under the same terms, in the case of `CCCCCCCC/C=C\CCCCCCCCNC(=O)Nc1cc(C)ccc1C` it was 4500 nM. Regarding `CCCCCCCC/C=C\CCCCCCCC(=O)Oc1c(C)cccc1C`, the IC50 at O-acyltransferase was > 10000 nM.

As to `CCCCCCCC/C=C\CCCCCCCCNC(=O)Nc1ccc(Oc2ccccc2)cc1`, the IC50 against O-acyltransferase is > 5000 nM. Consider `CCCCCCCCCCCCCCCCC(C)(C)CNC(=O)Nc1c(C(C)C)cccc1C(C)C`, for which inhibition on O-acyltransferase was half-maximal at 73 nM (IC50). Still for that read-out and setting: in the case of `CCCCCCCCCCC(CC)(CC)CNC(=O)Nc1c(C(C)C)cccc1C(C)C` it was 50 nM; in that of `CCCCCCCCCCNC(=O)Nc1c(C)cccc1C(C)(C)C`, 200 nM. On to `CCCCCCCC/C=C/CCCCCCCC(=O)Nc1c(OC)cc(OC)cc1OC`, for which it took 44 nM to reach half-maximal inhibition against O-acyltransferase (IC50). Further, the Change in the test on Rattus norvegicus is -38%. On O-acyltransferase, `CCCCCCCCCCCCCCCCCCNC(=O)Nc1c(C)cccc1C` came in with an IC50 of 610 nM.

On O-acyltransferase, `CCCCCCCCCCC(C)(C)CNC(=O)Nc1c(C(C)C)cccc1C(C)C` came in with an IC50 of 47 nM. Still for that read-out and setting: in the case of `CCCCCCCCCCNC(=O)Nc1c(CC)cccc1CC` it was 100 nM; in that of `CCCCCCCCCCCCCCCCCC[S+]([O-])c1c(C)cccc1C` (configuration not stated), > 10000 nM.

`CCCCCCCCCCCCCCCCCCNC(=O)Nc1c(OC)cc(OC)cc1OC`: the IC50 against O-acyltransferase was found to be 900 nM. With `CCCCCCCC/C=C\CCCCCCCCNC(=O)c1c(C)cccc1C`, 9800 nM corresponded to half-maximal inhibition against O-acyltransferase (IC50). On to `CCCCCCCCCCCCCCNC(=O)Nc1c(CC)cccc1C(C)C`, for which half-maximal inhibition against O-acyltransferase (IC50) was put at 18 nM. For the same molecule, the Change in the test on Rattus norvegicus was -41%.

With `CCCCCCCC/C=C\CCCCCCCCNC(=O)Nc1ccccc1OC`, 3300 nM corresponded to half-maximal inhibition against O-acyltransferase (IC50).
